Each structure is given as a SMILES string. pIC50: −log10 of the molar value.

Results on 1 molecule are retold here after PubChem BioAssay AID1671275.

This assay deals with Ephrin type-B receptor 3 (Homo sapiens) (UniProt P54753). As to the kind of experiment: EPHB3 kinase inhibitors, dose response, biochemical, Z'-LYTE, FRET, protease-coupled, direct format (AID 1671275). The following applies: Z'-LYTE FRET kinase activity assay, recombinant EPHB3.
Chain of Ephrin type-B receptor 3 (Homo sapiens) (P54753 whole entry, looked up): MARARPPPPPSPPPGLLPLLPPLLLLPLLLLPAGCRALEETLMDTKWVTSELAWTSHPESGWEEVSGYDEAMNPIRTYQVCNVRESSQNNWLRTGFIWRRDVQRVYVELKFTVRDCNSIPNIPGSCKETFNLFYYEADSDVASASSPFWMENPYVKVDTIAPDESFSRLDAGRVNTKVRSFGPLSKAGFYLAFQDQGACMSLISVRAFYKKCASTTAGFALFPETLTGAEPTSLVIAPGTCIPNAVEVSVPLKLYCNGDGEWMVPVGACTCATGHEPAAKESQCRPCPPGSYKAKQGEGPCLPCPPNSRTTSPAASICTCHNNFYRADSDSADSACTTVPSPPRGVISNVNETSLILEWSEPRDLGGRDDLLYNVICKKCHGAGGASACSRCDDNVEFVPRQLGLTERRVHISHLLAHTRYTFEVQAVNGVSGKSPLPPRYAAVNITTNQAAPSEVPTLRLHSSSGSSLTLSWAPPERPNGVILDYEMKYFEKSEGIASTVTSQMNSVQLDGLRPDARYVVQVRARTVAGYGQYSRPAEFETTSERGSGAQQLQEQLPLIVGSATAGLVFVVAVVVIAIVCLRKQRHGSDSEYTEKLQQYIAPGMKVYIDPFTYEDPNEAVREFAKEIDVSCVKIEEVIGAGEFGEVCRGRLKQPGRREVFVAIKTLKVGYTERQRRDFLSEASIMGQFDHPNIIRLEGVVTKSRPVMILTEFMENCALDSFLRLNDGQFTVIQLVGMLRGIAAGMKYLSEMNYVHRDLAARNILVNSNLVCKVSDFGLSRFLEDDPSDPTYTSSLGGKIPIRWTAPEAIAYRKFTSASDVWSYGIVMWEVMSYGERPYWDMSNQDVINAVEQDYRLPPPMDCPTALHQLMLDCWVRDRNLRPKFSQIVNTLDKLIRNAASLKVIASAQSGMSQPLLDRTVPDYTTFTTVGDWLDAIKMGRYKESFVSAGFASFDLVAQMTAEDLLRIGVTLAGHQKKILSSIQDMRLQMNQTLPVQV

The term pIC50 denotes the negative decadic logarithm of the IC50, by convention in mol/L. As to `CC(C)(C)n1nc(-c2ccc(Cl)cc2)c2c(N)ncnc21`, the pIC50 is 6.12.
